Like-named read-outs stand apart in the source and are kept apart here.
Experiments:
Assay in all cases: microbe, parasite or virus in culture
Format in all cases: cell-based
Conditions in all cases: read-out: IC50 of the main compounds of EC 3.2
SARS-CoV-2 Delta = tested on: SARS-CoV-2 Delta
SARS-CoV-2 Gamma = tested on: SARS-CoV-2 Gamma
[1] = tested on: SARS-CoV-2 Wuhan type (SARS-CoV-2PR-1)
SARS-CoV-2 Beta = tested on: SARS-CoV-2 Beta
SARS-CoV-2 Omicron = tested on: SARS-CoV-2 Omicron
SARS-CoV-2 Alpha = tested on: SARS-CoV-2 Alpha
[2] = Severe acute respiratory syndrome coronavirus 2, Calu-3, calculated from EC 3.2 IC50 and HPLC analysis (Table 4)
[3] = Calu-3, calculated from EC 3.2 IC50 and HPLC analysis (Table 4)

SMILES	IC50 (SARS-CoV-2 Delta; [2]) [µM]	IC50 (SARS-CoV-2 Gamma; [2]) [µM]	IC50 [1, 2] [µM]	IC50 (SARS-CoV-2 Beta; [2]) [µM]	IC50 (SARS-CoV-2 Omicron; [2]) [µM]	IC50 (SARS-CoV-2 Alpha; [2]) [µM]	IC50 (SARS-CoV-2 Delta; [3]) [µM]	IC50 (SARS-CoV-2 Gamma; [3]) [µM]	IC50 [1, 3] [µM]	IC50 (SARS-CoV-2 Beta; [3]) [µM]	IC50 (SARS-CoV-2 Omicron; [3]) [µM]	IC50 (SARS-CoV-2 Alpha; [3]) [µM]
O=C(/C=C/c1ccc(O)c(O)c1)O[C@@H]1C[C@](O)(C(=O)O)C[C@@H](O)[C@H]1O [Chlorogenic acid]	13	20	6.6	20	13	27						
OC[C@H]1O[C@@H](Oc2cc3c(O)cc(O)cc3[o+]c2-c2ccc(O)c(O)c2)[C@H](O)[C@@H](O)[C@@H]1O [Cyanidin-3-glucoside]							82	123	41	123	82	165
OC[C@H]1O[C@@H](Oc2cc(O)cc3[o+]c(-c4ccc(O)c(O)c4)c(O[C@@H]4O[C@H](CO)[C@@H](O)[C@H](O)[C@H]4O[C@@H]4OC[C@@H](O)[C@H](O)[C@H]4O)cc23)[C@H](O)[C@@H](O)[C@@H]1O [Cyanidin-3-sambubioside-5-glucoside]							12	18	6	18	12	24
OC[C@H]1O[C@@H](Oc2cc3c(O)cc(O)cc3[o+]c2-c2ccc(O)c(O)c2)[C@H](O[C@@H]2OC[C@@H](O)[C@H](O)[C@H]2O)[C@@H](O)[C@@H]1O [Cyanidin-3-sambubioside]							71	107	35	107	71	142
O=c1c(O[C@@H]2O[C@H](CO)[C@@H](O)[C@H](O)[C@H]2O)c(-c2ccc(O)c(O)c2)oc2cc(O)cc(O)c12 [Isoquercitrin]	2.7	4	1.3	4	2.7	5.4						
C[C@@H]1O[C@@H](OC[C@H]2O[C@@H](Oc3c(-c4ccc(O)c(O)c4)oc4cc(O)cc(O)c4c3=O)[C@H](O)[C@@H](O)[C@@H]2O)[C@H](O)[C@H](O)[C@H]1O [Rutin]	34	51	17	51	34	68						

— patent US20250009830A1 (priority 2021, published 2025)
